Test results published in patent US20170001990A1 (Genentech, Inc., priority 2014, published 2017).
Several values for one entry are separate records, joined by “and”; a condition that tells them apart may be missing. Equal values may be shown once.

Target: Human recombinant carboxy-terminal his-tagged LDHA (amino acids 2-332) (Homo sapiens, UniProt P00338)
Experiment: LDHA enzyme inhibition assay (NADH fluorescence)
Conditions: LDHA IC50 (μM), 1 nM LDHA, NADH and pyruvate, stereochemistry of tested sample given
Protocol: Test compounds were diluted in 100% DMSO with 1:3 serial dilutions. […] For the enzyme reaction, serially diluted compounds were added to a mixture of enzyme and NADH. […] Following the baseline read, pyruvate was added to the assay plates and the plates were read with excitation 340 nm and emission 480 nm for 10 minutes every 2.5 seconds. A suitable linear timeframe was selected (150-400 s) to calculate the slope of each concentration tested. The raw data were fitted to 4-parameter dose-response curves using the following equation:
fit=(A+((B−A)/(1+((C/x)̂D))))
inv=(C/((((B−A)/(y−A))−)̂(1/D)))
res=(y−fit) • where A=minimum y, B=maximum y, C=50% y max, and D=slope factor.
The curve bottom was set to the background rate (initial 5 second recording prior to addition of pyruvate) and curve top was set to no inhibitor (DMSO only) control wells rate.
The compounds of the present invention were tested for their capacity to inhibit LDHA activity and activation as described in the enzyme inhibition assay described above.

Structure (SMILES)	IC50
O=C1CC(c2ccsc2)(c2ccc(N3CCOCC3)c(Nc3ccc(F)cc3)n2)NC(=O)C1Sc1ccccc1Cl (centres unmarked) [Example 26, 3-(2-chlorophenyl)sulfanyl-6-[6-(4-fluoroanilino)-5-morpholino-2-pyridyl]-6-(3-thienyl)piperidine-2,4-dione]	0.038 µM
CN(c1cccc(C(F)(F)F)c1)c1cccc(C2(c3ccsc3)CC(=O)C(Sc3ccccc3Cl)C(=O)N2)n1 (centres unmarked) [Example 275, 3-((2-chlorophenyl)thio)-6-(6-(methyl(3-(trifluoromethyl)phenyl)amino)pyridin-2-yl)-6-(thiophen-3-yl)piperidine-2,4-dione]	0.233 µM
O=C1CC(c2ccc(N3CCOCC3)cc2)(c2cccc(Oc3ccc(F)c(F)c3)n2)NC(=O)C1Sc1ccccc1Cl (centres unmarked) [Example 40, 3-(2-chlorophenyl)sulfanyl-6-[6-(3,4-difluorophenoxy)-2-pyridyl]6-(4-morpholinophenyl)piperidine-2,4-dione]	0.036 µM
O=C1CC(c2ccsc2)(c2cccc(OCC3CCCC3)n2)NC(=O)C1Sc1ccccc1Cl (single isomer, unassigned) [Example 252, 3-(2-chlorophenyl)sulfanyl-6-[6-(cyclopentyl-methoxy)-2-pyridyl]-6-(3-thienyl)pipereidine-2,4-dione]	0.079 µM
CN(c1ccc(F)cc1)c1cccc(C2(c3ccsc3)CC(=O)C(Sc3ccccc3Cl)C(=O)N2)n1 (single isomer, unassigned) [Example 266, 3-((2-chlorophenyl)thio)-6-(6-((4-fluorophenyl) (methyl)amino)pyridin-2-yl)-6-(thiophen-3-yl) piperidine-2,4-dione]	0.099 µM
O=C1CC(c2ccsc2)(c2cccc(OC3CCCC3)n2)NC(=O)C1Sc1ccccc1Cl (centres unmarked) [Example 48, 3-((2-chlorophenyi)lliio)-6-(6-(cyclopentyloxy)pyridin-2-yl)-6-(thiophen-3-yl)piperidine-2 .4-dione]	0.052 µM
O=C1CC(c2ccsc2)(c2cccc(OCCN3CCCC3=O)n2)NC(=O)C1Sc1ccccc1Cl (centres unmarked) [Example 189, 3-(2-chlorophenyl)sulfanyl-6-[6-[2-(2-oxopyrrolidin-1-yl)ethoxy]-2-pyridyl]-6-(3-thienyl)piperidine-2,4-dione]	0.15 µM
Cn1cnc(Nc2cccc(C3(c4ccsc4)CC(=O)C(Sc4ccccc4Cl)C(=O)N3)n2)n1 (centres unmarked) [Example 271, 3-((2-chlorophenyl)thio)-6-(6-((1-methyl-1H-1,2,4-triazol-3-yl)amino)pyridin-2-yl)-6-(thiophen-3-yl) piperidine-2,4-dione]	0.355 µM
O=C1CC(c2ccsc2)(c2cccc(Oc3cccc(Cl)c3)n2)NC(=O)C1Sc1ccccc1Cl (centres unmarked) [Example 63, 6′-(3-chlorophenoxy)-5-((2-chlorophenyl)thio)-4-hydroxy-2-(thiophen-3-yl)-2,3-dihydro-[2,2′-bipyridin]-6(1H)-one]	0.037 µM
O=C1CC(c2ccsc2)(c2cccc(Oc3cccc(C(F)F)c3)n2)NC(=O)C1Sc1ccccc1Cl (single isomer, unassigned) [Example 136, 3-(2-chlorophenyl)sulfanyl-6-[6-[3-(difluoro-methyl)phenoxy]-2-pyridyl]-6-(3-thienyl) piperidine-2,4-dione]	0.222 µM
O=C1CC(c2ccsc2)(c2cccc(Oc3ccc(F)c(Cl)c3)n2)NC(=O)C1Sc1ccccc1Cl (single isomer, unassigned) [Example 108, 6-(6-(3-chloro-4-fluoro-phenoxy)pyridin-2-yl)-3-((2-chlorophenyl)thio)-6-(thiophen-3-yl) piperidine-2,4-dione]	0.108 µM
CCC(C)COc1cccc(C2(c3ccsc3)CC(=O)C(Sc3ccccc3Cl)C(=O)N2)n1 (centres unmarked) [Example 188, 3-(2-chlorophenyl)sulfanyl-6-[6-(2-methylbutoxy)-2-pyridyl]-6-(3-thienyl) piperidine-2,4-dione]	0.015 µM
CC(C)(O)CCOc1cccc(C2(c3ccsc3)CC(=O)C(Sc3ccccc3Cl)C(=O)N2)n1 (single isomer, unassigned) [Example 145, 3-(2-chlorophenyl)sulfanyl-6-[6-(3-hydroxy-3-methyl-butoxy)-2-pyridyl]-6-(3-thienyl)piperidine-2,4-dione]	0.088 µM
O=C1CC(c2ccsc2)(c2cccc(Oc3ccccc3)n2)NC(=O)C1Sc1ccccc1Cl [Example 336, (6R)-3-(2-chlorophenyl) sulfanyl-6-(6-phenoxy-2-pyridyl)-6-(3-thienyl) piperidine-2,4-dione]	0.368 µM
O=C1CC(c2ccsc2)(c2cccc(Cc3cccc(F)c3)n2)NC(=O)C1Sc1ccccc1Cl (centres unmarked) [Example 5, 3-(2-chlorophenyl)sulfanyl-6-[6-[(3-fluorophenyl)methyl]-2-pyridyl]-6-(3-thienyl)piperidine-2,4-dione]	0.028 µM and 0.009 µM and 0.066 µM
O=C1CC(c2ccsc2)(c2cccc(OCC3CCCCC3)n2)NC(=O)C1Sc1ccccc1Cl (centres unmarked) [Example 308, 3-((2-chlorophenyl)thio)-6-(6-(cyclohexylmethoxy)pyridin-2-yl)-6-(thiophen-3-yl)piperidine-2,4-dione]	0.825 µM
CC(Oc1cccc(C2(c3ccsc3)CC(=O)C(Sc3ccccc3Cl)C(=O)N2)n1)c1ccc(Cl)cc1 (centres unmarked) [Example 311, 6-(6-(1-(4-chlorophenyl)ethoxy)pyridin-2-yl)-3-((2-chlorophenyl)thio)-6-(thiophen-3-yl)piperidine-2,4-dione]	0.59 µM
O=C1CC(c2ccsc2)(c2cccc(OCC3CCOCC3)n2)NC(=O)C1Sc1ccccc1Cl (single isomer, unassigned) [Example 163, 3-((2-chlorophenyl)thio)-6-(6-((tetrahydro-2H-pyran-4-yl)methoxy)pyridin-2-yl)-6-(thiophen-3-yl)piperidine-2,4-dione]	0.194 µM
O=C1CC(c2ccsc2)(c2cccc(OCC3CC(F)(F)C3)n2)NC(=O)C1Sc1ccccc1Cl (single isomer, unassigned) [Example 196, 3-(2-chlorophenyl)sulfanyl-6-[6-[(3,3-difluorocyclo-butyl)methoxy]-2-pyridyl]-6-(3-thienyl)piperidine-2,4-dione]	0.036 µM
COc1cc(Cc2cccc(C3(c4ccsc4)CC(=O)C(Sc4ccccc4Cl)C(=O)N3)n2)ccc1F (single isomer, unassigned) [Example 283, 3-((2-chlorophenyl)thio)-6-(6-(4-fluoro-3-methoxy-benzyl)pyridin-2-yl)-6-(thiophen-3-yl)piperidine-2,4-dione]	0.037 µM

The remaining compounds from weak to strong by IC50, led by results:

IC50	Structure (SMILES)
0.026 µM	CN1C(=O)C(Sc2ccccc2Cl)C(=O)CC1(c1ccsc1)c1cccc(OC2CCOCC2)c1 (centres unmarked) [Example 23, 3-(2-chlorophenyl)sulfanyl-1-methyl-6-(3-tetrahydropyran-4-yloxyphenyl)-6-(3-thienyl)piperidine-2,4-dione]
0.018 µM	CN(C)c1cccc(C2(c3ccsc3)CC(=O)C(Sc3ccccc3Cl)C(=O)N2)n1 (centres unmarked) [Example 85, 3-((2-chlorophenyl)thio)-6-(6-(dimethylamino)pyridin-2-yl)-6-(thiophen-3-yl)piperidine-2,4-dione]
0.018 µM	O=C1CC(c2ccsc2)(c2cccc(OCC3CCCO3)n2)NC(=O)C1Sc1ccccc1Cl (single isomer, unassigned) [Example 238, 3-(2-chlorophenyl)sulfanyl-6-[6-(tetrahydrofuran-2-ylmethoxy)-2-pyridyl]-6-(3-thienyl)piperidine-2,4-dione]
0.015 µM	O=C1CC(c2ccsc2)(c2cccc(OCC3CCCO3)n2)NC(=O)C1Sc1ccccc1Cl (single isomer, unassigned) [Example 239, 3-(2-chlorophenyl)sulfanyl-6-[6-(tetrahydrofuran-2-ylmethoxy)-2-pyridyl]-6-(3-thienyl)piperidine-2,4-dione]
0.011 µM	Cn1ccnc1COc1cccc(C2(c3ccsc3)CC(=O)C(Sc3ccccc3Cl)C(=O)N2)n1 (centres unmarked) [Example 229, 3-(2-chlorophenyl)sulfanyl-6-[6-[(1-methylimidazol-2-yl)methoxy]-2-pyridyl]-6-(3-thienyl)piperidine-2,4-dione]
0.01 µM	O=C1CC(c2ccsc2)(c2cccc(Oc3cccc4c3NCCC4)n2)NC(=O)C1Sc1ccccc1Cl (centres unmarked) [Example 109, 3-((2-chlorophenyl)thio)-6-(6-((1,2,3,4-tetrahydro-quinolin-8-yl)oxy)pyridin-2-yl)-6-(thiophen-3-yl)piperidine-2,4-dione]
0.01 µM	O=C1CC(c2ccsc2)(c2cccc(Oc3ccccc3Br)n2)NC(=O)C1Sc1ccccc1Cl (single isomer, unassigned) [Example 197, 6-[6-(2-bromophenoxy)-2-pyridyl]-3-(2-chlorophenyl) sulfanyl-6-(3-thienyl) piperidine-2,4-dione]
0.007 µM	O=C1C[C@](c2ccsc2)(c2cccc(OCCC3CC3)n2)NC(=O)C1Sc1ccccc1Cl (stereo partly drawn) [Example 92, (6S)-3-((2-chlorophenyl)thio)-6-(6-(2-cyclopropyl-ethoxy)pyridin-2-yl)-6-(thiophen-3-yl)piperidine-2,4-dione]
0.005 µM	O=C1CC(c2ccsc2)(c2cccc(Cc3ccc(Cl)c(F)c3)n2)NC(=O)C1Sc1ccccc1Cl (centres unmarked) [Example 130, 6-(6-(4-chloro-3-fluoro-benzyl)pyridin-2-yl)-3-((2-chlorophenyl)thio)-6-(thiophen-3-yl)piperidine-2,4-dione]
0.003 µM	O=C1CC(c2ccsc2)(c2cccc(OCCC3CCC3)n2)NC(=O)C1Sc1ccccc1Cl (single isomer, unassigned) [Example 141, 3-(2-chlorophenyl)sulfanyl-6-[6-(2-cyclobutyl-ethoxy)-2-pyridyl]-6-(3-thienyl)piperidine-2,4-dione]
0.002 µM	O=C1CC(c2ccsc2)(c2cccc(Oc3cc(F)cc(CO)c3)n2)NC(=O)C1Sc1ccccc1Cl (single isomer, unassigned) [Example 216, 3-(2-chlorophenyl)sulfanyl-6-[6-[3-fluoro-5-(hydroxy-methyl)phenoxy]-2-pyridyl]-6-(3-thienyl)piperidine-2,4-dione]
0.002 µM	Cc1cc(Nc2cccc([C@@]3(c4ccsc4)CC(=O)C(Sc4ccccc4Cl)C(=O)N3)n2)cnc1F (stereo partly drawn) [Example 335, (6S)-3-(2-chlorophenyl) sulfanyl-6-[6-[(6-fluoro-5-methyl-3-pyridyl)amino]-2-pyridyl]-6-(3-thienyl) piperidine-2,4-dione]
